Drawing on ChEMBL document CHEMBL5579830, “Design and synthesis of 6-C-alkyl-DMDP type nanomolar inhibitors of β-galactosidase and β-glucosidase based on broussonetine S and related derivatives” (Eur J Med Chem, 2024), this text covers IC50 and inhibition for nine compounds.

Molecules are shown by their SMILES.

What is called IC50 is the concentration needed to halve the response being measured. For orientation: inhibition means how much of the control response was suppressed.

Target in the first experiment: not listed separately
Put plainly: Inhibition of bovine liver beta-galactosidase using p-nitrophenyl glycoside as substrate assessed as release of p-nitrophenol by spectrometric analysis. Details: species or system Bos taurus.
As for `OCCC[C@H](O)CCCCCCCC[C@H](O)[C@H]1N[C@H](CO)[C@@H](O)[C@@H]1O`, the IC50 was 62 nM.

For the compound `CCCCCCC[C@H](O)[C@H]1N[C@H](CO)[C@@H](O)[C@@H]1O`, the IC50 turned out to be 390 nM.

With `OCCC[C@@H](O)CCCCCCCC[C@H](O)[C@@H]1N[C@@H](CO)[C@H](O)[C@H]1O`, the IC50 was found to be 740 nM.

Take `OCCC[C@H](O)CCCCCCCC[C@@H](O)[C@H]1N[C@H](CO)[C@@H](O)[C@@H]1O`: the IC50 was found to be 7 nM.

With `OCCC[C@@H](O)CCCCCCCC[C@@H](O)[C@H]1N[C@H](CO)[C@@H](O)[C@@H]1O`, the IC50 was determined as 5 nM.

Target in the next experiment: not listed separately
Put plainly: Inhibition of rice alpha-glucosidase using p-nitrophenyl glycoside as substrate assessed as release of p-nitrophenol by spectrometric analysis. Details: species or system Oryza sativa.
Turning to `OCCC[C@@H](O)CCCCCCCC[C@H](O)[C@@H]1N[C@@H](CO)[C@H](O)[C@H]1O`, the IC50 stood at 11 µM.

Another experiment addresses Alpha-glucosidase (Saccharomyces cerevisiae S288c, UniProt P53341+P38158+P07265). As to the kind of experiment: Inhibition of yeast alpha-glucosidase using p-nitrophenyl glycoside as substrate assessed as release of p-nitrophenol by spectrometric analysis. The format is protein assay.
Consider `CCCCCCCCC[C@@H](O)[C@H]1N[C@H](CO)[C@@H](O)[C@@H]1O.Cl`, for which the IC50 was 21 µM.

Consider `CCCCCCCC[C@@H](O)[C@H]1N[C@H](CO)[C@@H](O)[C@@H]1O.Cl`, for which the IC50 came to 28 µM.

Regarding `CCCCCCCC[C@H](O)[C@H]1N[C@H](CO)[C@@H](O)[C@@H]1O.Cl`, the IC50 was 101 µM.

For `CCCCCCCCC[C@H](O)[C@H]1N[C@H](CO)[C@@H](O)[C@@H]1O.Cl`, the concentration for half-maximal inhibition (IC50) worked out at 53 µM.

For the next experiment, the target named is T1, Tissue alpha-L-fucosidase (Bos taurus) (UniProt Q2KIM0).
T1 sequence (whole entry): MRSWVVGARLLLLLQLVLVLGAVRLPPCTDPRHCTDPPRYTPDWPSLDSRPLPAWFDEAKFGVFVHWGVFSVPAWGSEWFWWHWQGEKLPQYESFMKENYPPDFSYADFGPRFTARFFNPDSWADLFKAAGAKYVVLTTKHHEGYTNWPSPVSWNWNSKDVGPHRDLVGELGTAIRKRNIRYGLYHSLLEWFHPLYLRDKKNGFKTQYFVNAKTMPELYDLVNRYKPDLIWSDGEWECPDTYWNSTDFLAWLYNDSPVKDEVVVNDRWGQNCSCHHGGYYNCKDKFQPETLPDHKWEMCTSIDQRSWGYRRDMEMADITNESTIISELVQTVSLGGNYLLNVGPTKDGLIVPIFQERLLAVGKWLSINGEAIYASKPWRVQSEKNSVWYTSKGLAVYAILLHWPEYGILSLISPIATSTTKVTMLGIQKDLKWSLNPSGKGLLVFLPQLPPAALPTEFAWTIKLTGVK
As to the kind of experiment: Inhibition of bovine kidney alpha-L-fucosidase using p-nitrophenyl glycoside as substrate assessed as release of p-nitrophenol at 1000 uM by spectrometric analysis relative to control.
Turning to `OCCC[C@H](O)CCCCCCCC[C@H](O)[C@H]1N[C@H](CO)[C@@H](O)[C@@H]1O`, the inhibition was found to be 6%.

On to `OCCC[C@@H](O)CCCCCCCC[C@H](O)[C@@H]1N[C@@H](CO)[C@H](O)[C@H]1O`, for which the inhibition was found to be 4.3%.

Turning to `OCCC[C@H](O)CCCCCCCC[C@@H](O)[C@H]1N[C@H](CO)[C@@H](O)[C@@H]1O`, the inhibition amounted to 0.86%.

In the case of `OCCC[C@@H](O)CCCCCCCC[C@@H](O)[C@H]1N[C@H](CO)[C@@H](O)[C@@H]1O`, the inhibition turned out to be 6.5%.

Target in a further experiment: not listed separately
Put plainly: Inhibition of almond beta-glucosidase using p-nitrophenyl glycoside as substrate assessed as release of p-nitrophenol by spectrometric analysis. On the set-up: species or system Prunus dulcis.
Consider `OCCC[C@H](O)CCCCCCCC[C@H](O)[C@H]1N[C@H](CO)[C@@H](O)[C@@H]1O`, for which the IC50 was 2800 nM.

With `CCCCCCC[C@H](O)[C@H]1N[C@H](CO)[C@@H](O)[C@@H]1O`, the IC50 turned out to be 540 nM.

Take `OCCC[C@@H](O)CCCCCCCC[C@H](O)[C@@H]1N[C@@H](CO)[C@H](O)[C@H]1O`: the half-inhibitory concentration (IC50) stood at 92000 nM.

For `OCCC[C@H](O)CCCCCCCC[C@@H](O)[C@H]1N[C@H](CO)[C@@H](O)[C@@H]1O`, the IC50 amounted to 690 nM.

Regarding `OCCC[C@@H](O)CCCCCCCC[C@@H](O)[C@H]1N[C@H](CO)[C@@H](O)[C@@H]1O`, the IC50 turned out to be 530 nM.

Test system in another experiment: not listed separately
As to the kind of experiment: Inhibition of Escherichia coli beta-glucuronidase using p-nitrophenyl glycoside as substrate assessed as release of p-nitrophenol by spectrometric analysis.
Turning to `OCCC[C@H](O)CCCCCCCC[C@H](O)[C@H]1N[C@H](CO)[C@@H](O)[C@@H]1O`, the IC50 was 2.9 µM.

In the case of `OCCC[C@@H](O)CCCCCCCC[C@H](O)[C@@H]1N[C@@H](CO)[C@H](O)[C@H]1O`, the IC50 came to 56 µM.

Take `OCCC[C@H](O)CCCCCCCC[C@@H](O)[C@H]1N[C@H](CO)[C@@H](O)[C@@H]1O`: the half-maximal inhibitory concentration (IC50) came to 2.7 µM.

For `OCCC[C@@H](O)CCCCCCCC[C@@H](O)[C@H]1N[C@H](CO)[C@@H](O)[C@@H]1O`, the IC50 was found to be 3.3 µM.

The next experiment deals with Alpha-galactosidase (Coffea arabica) (UniProt Q42656). Put plainly: Inhibition of coffee bean alpha-galactosidase using p-nitrophenyl glycoside as substrate assessed as release of p-nitrophenol at 1000 uM by spectrometric analysis relative to control.
Alpha-galactosidase (Coffea arabica), sequence (Q42656 16-378 limits assumed): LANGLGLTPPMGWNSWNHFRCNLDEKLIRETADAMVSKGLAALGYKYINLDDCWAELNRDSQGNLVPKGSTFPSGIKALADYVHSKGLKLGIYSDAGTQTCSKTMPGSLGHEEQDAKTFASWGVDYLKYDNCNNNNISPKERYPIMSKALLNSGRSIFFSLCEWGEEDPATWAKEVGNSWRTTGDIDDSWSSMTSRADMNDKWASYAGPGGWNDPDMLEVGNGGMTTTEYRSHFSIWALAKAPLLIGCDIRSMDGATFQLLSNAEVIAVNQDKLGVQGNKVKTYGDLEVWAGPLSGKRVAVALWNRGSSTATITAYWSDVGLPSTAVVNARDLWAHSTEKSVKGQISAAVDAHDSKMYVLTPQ
In the case of `OCCC[C@H](O)CCCCCCCC[C@H](O)[C@H]1N[C@H](CO)[C@@H](O)[C@@H]1O`, the inhibition was 4.7%.

With `CCCCCCC[C@H](O)[C@H]1N[C@H](CO)[C@@H](O)[C@@H]1O`, the inhibition amounted to 0%.

Take `OCCC[C@@H](O)CCCCCCCC[C@H](O)[C@@H]1N[C@@H](CO)[C@H](O)[C@H]1O`: the inhibition is 4.8%.

Turning to `OCCC[C@H](O)CCCCCCCC[C@@H](O)[C@H]1N[C@H](CO)[C@@H](O)[C@@H]1O`, the inhibition is 4.5%.

In the case of `OCCC[C@@H](O)CCCCCCCC[C@@H](O)[C@H]1N[C@H](CO)[C@@H](O)[C@@H]1O`, the inhibition worked out at 4.4%.

Target in a further experiment: not listed separately
As to the kind of experiment: Inhibition of snail beta-mannosidase using p-nitrophenyl glycoside as substrate assessed as release of p-nitrophenol by spectrometric analysis. Details: species or system Helix pomatia.
Consider `OCCC[C@H](O)CCCCCCCC[C@@H](O)[C@H]1N[C@H](CO)[C@@H](O)[C@@H]1O`, for which the IC50 was 71 µM.

With `OCCC[C@@H](O)CCCCCCCC[C@@H](O)[C@H]1N[C@H](CO)[C@@H](O)[C@@H]1O`, the IC50 came out at 62 µM.

The next experiment has as its target T2, Alpha-mannosidase (Canavalia ensiformis) (UniProt C0HJB3).
T2 sequence (whole entry): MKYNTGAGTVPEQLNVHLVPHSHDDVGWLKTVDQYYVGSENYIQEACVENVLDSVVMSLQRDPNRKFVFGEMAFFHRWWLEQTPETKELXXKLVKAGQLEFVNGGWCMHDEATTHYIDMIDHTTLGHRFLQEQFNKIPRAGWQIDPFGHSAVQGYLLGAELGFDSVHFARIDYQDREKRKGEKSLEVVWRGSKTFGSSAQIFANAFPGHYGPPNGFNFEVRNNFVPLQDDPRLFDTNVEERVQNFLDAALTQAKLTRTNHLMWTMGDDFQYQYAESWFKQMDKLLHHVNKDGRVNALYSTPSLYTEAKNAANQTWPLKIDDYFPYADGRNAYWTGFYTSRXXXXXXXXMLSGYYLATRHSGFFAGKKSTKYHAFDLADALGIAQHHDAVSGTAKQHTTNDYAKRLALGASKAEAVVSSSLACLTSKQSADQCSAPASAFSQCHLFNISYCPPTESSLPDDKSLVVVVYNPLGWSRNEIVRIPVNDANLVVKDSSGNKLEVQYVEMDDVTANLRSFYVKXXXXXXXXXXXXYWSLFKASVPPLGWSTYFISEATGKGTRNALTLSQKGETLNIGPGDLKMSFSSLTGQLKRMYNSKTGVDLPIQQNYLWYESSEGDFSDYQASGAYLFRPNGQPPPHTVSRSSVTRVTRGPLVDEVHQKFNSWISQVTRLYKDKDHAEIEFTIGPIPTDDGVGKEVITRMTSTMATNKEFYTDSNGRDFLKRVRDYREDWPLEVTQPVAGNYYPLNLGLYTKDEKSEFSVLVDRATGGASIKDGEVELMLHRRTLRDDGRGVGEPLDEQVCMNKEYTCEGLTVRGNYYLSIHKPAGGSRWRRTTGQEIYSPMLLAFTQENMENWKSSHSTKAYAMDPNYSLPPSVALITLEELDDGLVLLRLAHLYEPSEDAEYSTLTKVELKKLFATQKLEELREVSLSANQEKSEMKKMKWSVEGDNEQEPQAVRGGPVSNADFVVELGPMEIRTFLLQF
As to the kind of experiment: Inhibition of jack bean alpha-mannosidase using p-nitrophenyl glycoside as substrate assessed as release of p-nitrophenol at 1000 uM by spectrometric analysis relative to control.
On to `OCCC[C@H](O)CCCCCCCC[C@H](O)[C@H]1N[C@H](CO)[C@@H](O)[C@@H]1O`, for which the inhibition is 0%.

Consider `CCCCCCC[C@H](O)[C@H]1N[C@H](CO)[C@@H](O)[C@@H]1O`, for which the inhibition was found to be 0.2%.

For `OCCC[C@@H](O)CCCCCCCC[C@H](O)[C@@H]1N[C@@H](CO)[C@H](O)[C@H]1O`, the inhibition was found to be 2.2%.

Take `OCCC[C@H](O)CCCCCCCC[C@@H](O)[C@H]1N[C@H](CO)[C@@H](O)[C@@H]1O`: the inhibition was found to be 0%.

`OCCC[C@@H](O)CCCCCCCC[C@@H](O)[C@H]1N[C@H](CO)[C@@H](O)[C@@H]1O`: the inhibition stood at 0%.

Target in another experiment: not listed separately
As to the kind of experiment: Inhibition of Aspergillus niger amyloglucosidase using p-nitrophenyl glycoside as substrate assessed as release of p-nitrophenol by spectrometric analysis.
As to `OCCC[C@H](O)CCCCCCCC[C@@H](O)[C@H]1N[C@H](CO)[C@@H](O)[C@@H]1O`, the IC50 was found to be 73 µM.

Consider `OCCC[C@@H](O)CCCCCCCC[C@@H](O)[C@H]1N[C@H](CO)[C@@H](O)[C@@H]1O`, for which the IC50 worked out at 62 µM.
